Laboratory results: patent US9371568B2, “Markers associated with human double minute 2 inhibitors” (Novartis AG, priority 2012, dated 2016)

Tests used:
[1] = test system: SJSA-1, HCT116 p53wt/wt, SAOS2 and HCT116 p53-/- cells; experiment: Cell proliferation inhibition assay (YOPRO), p53 wild-type and p53 mutant cell lines; type: cell-based; details: 72 hours, p53 wild-type vs p53 mutant cell lines
Procedure: Lucern, Switzerland). Briefly, cells are plated in 96-well plates overnight at 37° C. and are treated with increasing concentrations of MDM2i(1) or MDM2i(2) for 72 hours. Cell concentration in each well is then determined using the DNA-interacting fluorescent dye YOPRO according to the manufacturer's instructions and the fluorescent signal is measured using a Gemini-EM standard plate reader (Molecular Devices: Sunnyvale, Calif., USA).

C3A cells = experiment: Western blot of p53 pathway proteins, C3A sensitive cells; type: cell-based; details: 4 hours
Procedure: (§1) That the biomarkers in Table 2/FIG. 3 are reflective of a functional p53 pathway in MDM2i sensitive cells is verified in FIG. 4. […]. Whole cell lysates were prepared using a cell lysis buffer containing 50 mM Tris-HCl pH 7.5, 120 mM NaCl, 1 mM EDTA, 6 mM EGTA pH 8.5, 1% NP-40, 20 mM NaF, 1 mM PMSF and 0.5 mM Na-Vanadat, proteins were separated on NuPAGE 4-12% Bis-Tris Gel (Invitrogen # NP0322BOX, Lucerne; Switzerland), transferred onto Nitrocellulose Protran® BA 85 membranes (Whatman #10 401 261: Piscataway, N.J., USA) at 1.5 mA/cm^2 membrane for 2 h using a semi-dry blotting system, and immunoblotted with either an anti-phospho-p53 (Ser^15) (1/1000; Cell Signaling Technology #9284: Beverly, Mass., USA) rabbit polyclonal antibody, or an anti-p53 (Ab-6) (Pantropic, clone DO-1,) (1/1000; Calbiochem # OP43 San Diego, Calif., USA), an anti-MDM2 (Ab-1, clone IF2) (1/1000; Calbiochem # OP46), an anti-p21^WAF1(Ab-1, clone EA10) (1/500; Calbiochem # OP64: San Diego, Calif., USA) or an anti-α-Tubulin (Sigma # T5168: St. Louis, Mo., USA) mouse monoclonal antibodies, as indicated. […].

COLO 792 cells = experiment: Western blot of p53 pathway proteins, COLO 792 insensitive cells; type: cell-based; details: increasing concentrations, 4 hours
Procedure: as §1

[2] = test system: SJSA-1 osteosarcoma cells; experiment: SJSA-1 xenograft tumor growth in nude mice; type: in vivo; details: 10-day treatment
Procedure: To further validate the predictive biomarkers disclosed in FIG. 3, in vivo human xenograft models either from human primary samples or from cell lines were directly injected and grown in tumors subcutaneously in mice and then assessed for MDM2i sensitivity. All the animals were allowed to adapt for 4 days and housed in a pathogen-controlled environment (5 mice/Type III cage) with access to food and water ad libitum. Animals were identified with transponders. Studies were performed according to procedures covered by permit number 1975 issued by the Kantonales Veterinäramt Basel-Stadt and strictly adhered to the Eidgenössisches Tierschutzgesetz and the Eidgenössische Tierschutzverordnung. […] Tumor volumes (TVol), determined from caliper measurements (using the formula I×w×h×τ/6) were measured three times per week. Tumor response was quantified by the change in tumor volume (endpoint minus starting value in mm^3) as the T/C, i.e.
[formula] In the case of a tumor regression, the tumor response was quantified by the percentage of regression of the starting TVol, i.e.
[formula] The body-weight (BW) of the mice was measured three times per week allowing calculation at any particular time-point relative to the day of initiation of treatment (day 0) of both the percentage change in BW (Δ % BW). […]

p21(CDKN1A) [3] = experiment: p21(CDKN1A) mRNA levels in SJSA-1 tumors (qRT-PCR); type: in vivo, mice; details: SJSA-1 xenograft, 25-100 mg/kg q24h
Procedure: Briefly, total RNA was purified from cell pellets using the QIAshredder® (79654, Qiagen: Valencia Calif., USA) and RNeasy Mini Kit® (74106, Qiagen: Valencia Calif., USA) according to the manufacturer's instructions, with the exception that no DNA digestion was performed. Total RNA was eluted with 50 μL of RNase-free water. Total RNA was quantitated using the spectrophotometer ND-1000 Nanodrop® (Wilmington Del., USA). The qRT-PCR (Quantitative Reverse Transcriptase Polymerase Chain Reaction) was set up in triplicate per sample using the One-Step RT qPCR Master Mix Plus (RT-QPRT-032×, Eurogentec: Seraing, Belgium), with either control primers and primers for human p21(CDKN1A) (Hs00355782_m1, Applied Biosystems: Carlsbad Calif., USA) or mouse p21(CDKN1A) (Mm00432448_m1, Applied Biosystems: Carlsbad Calif., USA), namely TaqMan Gene Expression kit assays (20× probe dye FAM™ (or VIC)-TAMRA (or MGB); Applied Biosystems: Carlsbad Calif., USA). […] The number of cycles (CT) was determined, 2^−CT values were calculated, and the value normalized by dividing with the 2^−CT value obtained from the Gapdh control. Fold increase over control (i.e. DMSO- or vehicle-treated animals) was calculated and plotted in the bar graph.

p21(CDKN1A) [4] = experiment: p21(CDKN1A) protein levels in SJSA-1 tumors (immunohistochemistry); type: in vivo, mice; details: SJSA-1 xenograft
Procedure: SJSA-1 xenograft tumors were collected and a 3-4 mm slice out of the middle of the tumor was removed, transferred into pre-labelled histo-cassettes and immersion-fixed in neutral buffered formalin (NBF) 10% (v/v) (pH 6.8-7.2) (J. T. Baker, Winter Garden, Fla., USA), pre-cooled at 4° C. Tumors were then fixed at room temperature for 24 hours, followed by processing in the TPC 15Duo (Tissue Processing Center, Medite) for paraffinization. Subsequently, the tumor slices were embedded in paraffin and from each paraffin block several 3 μm thick sections were cut on a rotary microtome (Mikrom International AG, Switzerland), spread in a 48° C. water-bath, mounted on glass slides (SuperFrost Plus, Thermo Scientific: Waltham Mass., USA), and dried in an oven either at 37° C. overnight or at 60° C. for 30 min. Dry tissue section were processed for immunohistochemistry (IHC) staining. p21(CDKN1A) immunohistochemistry has been performed using the mouse monoclonal antibody clone SX118 from Dako (Cat. No. M7202 Dako: Carpenteria Calif., USA) at a dilution of 1:50. Immunohistochemistry has been performed on a Ventana Discovery XT automated immunostainer using the N-Histofine Mousestain Kit (Nichirei Bioscience Inc, Japan) in combination with the DABMap Kit chromogen system, omitting the SA-HRP solution (Ventana/Roche Diagnostics GmbH, Mannheim, Germany). […]

SJSA-1 osteosarcoma line = details: SJSA-1, amplified MDM2 gene; cited from earlier work
[5] = test system: human and mouse normal fibroblasts; details: cited from earlier work

## COc1cc2c(cc1OC(C)C)[C@H](c1ccc(Cl)cc1)N(c1ccc(N(C)C[C@H]3CC[C@H](N4CCNC(=O)C4)CC3)cc1)C(=O)C2 [MDM2i(2)]
[1]
  tumor cell proliferation: hampering tumor cell proliferation in a p53-dependent manner

## COc1cc2c(cc1OC(C)C)[C@H](c1ccc(Cl)cc1)N(c1ccc(N(C)C[C@H]3CC[C@H](N4CCN(C)C(=O)C4)CC3)cc1)C(=O)C2 [MDM2i(1)]
[1]
  tumor cell proliferation: hampering tumor cell proliferation in a p53-dependent manner
C3A cells; C3A cells, increasing concentrations
  phospho-p53: no significant increase
C3A cells; C3A sensitive cells
  expression of p53 target genes p21(CDKN1A) and MDM2: strong de novo expression
COLO 792 cells
  phospho-p53: no significant increase
[2]; 25 mg/kg q24h
  T/C (tumor growth inhibition): 50%
[2]; 50 mg/kg q24h
  T/C (tumor growth inhibition): 3%
p21(CDKN1A) [3]
  p21(CDKN1A) mRNA levels in tumors: significant dose-dependent induction
p21(CDKN1A) [4]
  p21(CDKN1A) protein levels in tumors: significant dose-dependent induction

## COc1ccc(C2=N[C@@H](c3ccc(Cl)cc3)[C@@H](c3ccc(Cl)cc3)N2C(=O)N2CCNC(=O)C2)c(OC(C)C)c1 [Nutlin-3]
SJSA-1 osteosarcoma line
  apoptosis: increased apoptosis
  proliferation: reduced proliferation
[5]
  proliferation of normal fibroblasts: proliferation of the cells was slowed
  viability of normal fibroblasts: retained their viability
